Data on one compound can be found in patent US20220411414A1, “INHIBITORS FOR THE B-CATENIN/B-CELL LYMPHOMA 9 (BCL9) PROTEIN-PROTEIN INTERACTION” (H. LEE MOFFITT CANCER CENTER AND RESEARCH INSTITUTE, INC., priority 2018, published 2022).

For one experiment, the system named is A549. Put plainly: MTs growth inhibition assay, A549 (Wnt-latent). It is filed as cell-based. Particulars: Homo sapiens, read-out: MTs IC50 ± SD A549.
Experiment [1] deals with TOPFlash (three wild-type Tcf binding sites) luciferase reporter. Put plainly: Wnt-responsive TOPFlash luciferase reporter assay, β-catenin-activated HEK239. It is filed as cell-based. Particulars: 24 h treatment, read-out: TOPFlash IC50 ± SD β-catenin-activated HEK239. The procedure:
The TOPFlash luciferase reporter assay (in which the luciferase reporter has three wild-type Tcf4 binding sites) was performed with 4 and 5. Cell transfection and luciferase assay. FuGENE6 (E269A, Promega) 96 well plate format was used for the transfection of HEK293 and SW480 cells according to the manufacturer's instruction. HEK293 cells were co-transfected with 45 ng of TOPFlash or FOPFlash reporter gene, 135 ng pcDNA3.1-β-catenin, and 20 ng of pCMV-RL normalization reporter gene. SW480 cells were co-transfected with 60 ng of the TOPFlash or FOPFlash reporter gene and 40 ng of pCMV-RL normalization reporter. Cells were cultured in DMEM and 10% FBS at 37° C. for 24 h, and different concentrations of inhibitors or DMSO was added. After 24 h, the luciferase reporter activity was measured using the Dual-Glo system (E2940, Promega). Normalized luciferase activity in response to the treatment with 4 and 5 was compared with that obtained from the cells treated with DMSO. Experiments were performed in triplicate.
On the technique in general: In a reporter assay the amount or activity of a reporter protein is the signal.

The subject of experiment [2] is mRNA expression of AXIN2, LEF1, cyclin D1 (Wnt target genes). Put plainly: Quantitative real-time PCR of Wnt target genes in SW480 cells. Format: cell-based, human. Particulars: SW480, 24 h, FIG. 2. The source says:
House-keeper gene HERT was used as a reference. Each set of data is expressed as mean±standard deviation (n=3).
Axin2, cyclin D1, c-myc, and LEF1 are the target genes of the canonical Wnt signaling pathway. Axin 2 is a specific target gene for the canonical Wnt signaling pathway (a. Yan D, et al., Elevated expression of axin2 and hnkd mRNA provides evidence that Wnt/beta-catenin signaling is activated in human colon tumors. Proc Natl Acad Sci USA. 2001 Dec. 18; 98(26):14973-8; b. Jho E H, et al., Wnt/beta-catenin/Tcf signaling induces the transcription of Axin2, a negative regulator of the signaling pathway. Mol Cell Biol. 2002 February; 22(4):1172-83; c. Leung J Y, et al., Activation of AXIN2 expression by beta-catenin-T cell factor. A feedback repressor pathway regulating Wnt signaling. J Biol Chem. 2002 Jun. 14; 277(24):21657-65; d. Lustig B, et al., Negative feedback loop of Wnt signaling through upregulation of conductin/axin2 in colorectal and liver tumors. Mol Cell Biol. 2002 February; 22(4):1184-93). Cyclin D1 (a. Tetsu O, et al., Nature. 1999 Apr. 1; 398(6726):422-6; b. Sansom O J, et al., Cyclin D1 is not an immediate target of beta-catenin following Apc loss in the intestine. J Biol Chem. 2005 Aug. 5; 280(31):28463-7; c. Shtutman M, et al., The cyclin D1 gene is a target of the beta-catenin/LEF-1 pathway. Proc Natl Acad Sci USA. 1999 May 11; 96(10):5522-7; d. Lin S Y, et al., Beta-catenin, a novel prognostic marker for breast cancer: its roles in cyclin D1 expression and cancer progression. Proc Natl Acad Sci USA. 2000 Apr. 11; 97(8):4262-6), c-myc (a. He T C, et al., Identification of c-MYC as a target of the APC pathway. Science. 1998 September 4; 281(5382):1509-12; b. Sansom O J, et al., Myc deletion rescues Ape deficiency in the small intestine. Nature. 2007 Apr. 5; 446(7136):676-9), and LEF1 (Hovanes K, et al., Beta-catenin-sensitive isoforms of lymphoid enhancer factor-1 are selectively expressed in colon cancer. Nat Genet. 2001 May; 28(1):53-7.; Filali M, et al., Wnt-3A/beta-catenin signaling induces transcription from the LEF-1 promoter. J Biol Chem. 2002 Sep. 6; 277(36):33398-410; Li T W, et al., Wnt activation and alternative promoter repression of LEF1 in colon cancer. Mol Cell Biol. 2006 July; 26(14):5284-99; Nguyen D X, et al., WNT/TCF signaling through LEF1 and HOXB9 mediates lung adenocarcinoma metastasis. Cell. 2009 Jul. […] Quantitative real-time PCR studies were also conducted to evaluate the inhibitory effects of 4 on the mRNA levels of Wnt target genes.
Quantitative real time PCR analysis. SW480 cells at 1×10^6/mL were treated with different concentrations of 4 for 24 h. […] Quantitative PCR (qPCR) was performed using the iQ™ SYBR green supernix kit (170-8880, BIO-RAD) on an iQ^5 multicolor real-time PCR reaction system (BIO-RAD). […]
In general terms: Real-time PCR tracks product formation cycle by cycle.

For orientation: IC50 means the midpoint of a concentration-inhibition curve.

In the case of `Cl.Cl.O=C(Nc1ccc(O[C@@H]2CCNC2)c(-c2cccc(-c3nn[nH]n3)c2)c1)c1ccc(O[C@H]2CCNC2)c(-c2ccc(F)c(F)c2)c1` [Compound 4, 3′,4′-difluoro-6-(((S)-pyrrolidin-3-yl)oxy)-N-(6-(((R)-pyrrolidin-3-yl)oxy)-3′-(2H-tetrazol-5-yl)-[1,1′-biphenyl]-3-yl)-[1,1′-biphenyl]-3-carboxamide dihydrochloride], the IC50 in the experiment on A549 was greater than 400 µM. For the same compound, in experiment [1], the IC50 was determined as 25 ± 4.1 µM. Also, in experiment [2], the “mRNA of house-keeper gene HERT” value was “did not inhibit”, the “transcription of Axin2” value is given as “dose-dependently inhibit”, the “transcription of LEF1” value is listed as “dose-dependently inhibit” and the “transcription of cyclin D1” value was “dose-dependently inhibit”.
